Where two headings read alike, the source gives them in different places.
Target: T1, pyocin L1 (Pseudomonas aeruginosa, UniProt T2LG16)
T1 construct: full length, 256 residues, 28413 Da; expressed in E. coli BL21(DE3)pLysS (pETPyoL1); monomer
T1 sequence (T2LG16 1-256): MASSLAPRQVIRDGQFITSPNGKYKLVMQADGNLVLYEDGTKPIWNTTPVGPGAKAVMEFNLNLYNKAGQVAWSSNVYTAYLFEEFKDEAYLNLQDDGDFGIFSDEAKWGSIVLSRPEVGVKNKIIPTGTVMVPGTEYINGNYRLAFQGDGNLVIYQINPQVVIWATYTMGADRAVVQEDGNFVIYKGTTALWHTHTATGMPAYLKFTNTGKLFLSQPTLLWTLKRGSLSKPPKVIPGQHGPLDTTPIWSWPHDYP
Format: binding

OC[C@H]1OC(O)[C@@H](O)[C@@H](O)[C@@H]1O (stereo partly drawn) [D-mannose]
Kd (read-out: Kd): > 50 mM

C[C@H]1OC(O)[C@@H](O)[C@@H](O)[C@@H]1O (stereo partly drawn) [D-rhamnose]
Kd (read-out: apparent Kd): 5 to 10 mM

— PMC3916391 (PLoS Pathogens, 2014)
